From ChEMBL document CHEMBL1201862, “PubChem BioAssay data set” (2004)
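Interpolation was linear, between the two tested concentrations surrounding the appropriate level; five concentrations were tested over 48 hours in 96-well plates. Here, GI50 denotes the concentration required for 50% inhibition of growth.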 The source made the active and inactive calls. No stated cut-off is given here; in the data, active = GI50 up to about 1.1 µM and inactive = higher.

Assays:
Assay in all cases: NCI tumour cell line growth inhibition, 48 h
A549 = tested on: A549
ACHN = tested on: ACHN
CCRF-CEM = tested on: CCRF-CEM
EKVX = tested on: EKVX
HCC 2998 = tested on: HCC 2998
HCT-15 = tested on: HCT-15
HL-60 = tested on: HL-60
HOP-92 = tested on: HOP-92
HT-29 = tested on: HT-29
IGROV-1 = tested on: IGROV-1
K562 = tested on: K562
KM12 = tested on: KM12
M14 = tested on: M14
MCF7 = tested on: MCF7
MDA-N = tested on: MDA-N
MOLT-4 = tested on: MOLT-4
NCI-H460 = tested on: NCI-H460
NCI/ADR-RES = tested on: NCI/ADR-RES
OVCAR-5 = tested on: OVCAR-5
OVCAR-8 = tested on: OVCAR-8
PC-3 = tested on: PC-3
RPMI-8226 = tested on: RPMI-8226
SF-268 = tested on: SF-268
SF-539 = tested on: SF-539
SK-MEL-5 = tested on: SK-MEL-5
SNB-75 = tested on: SNB-75
SR = tested on: SR
SW-620 = tested on: SW-620
U-251 = tested on: U-251
UACC-257 = tested on: UACC-257
786-0 = tested on: 786-0
A498 = tested on: A498
CAKI-1 = tested on: CAKI-1
COLO 205 = tested on: COLO 205
DU-145 = tested on: DU-145
HCT-116 = tested on: HCT-116
HOP-62 = tested on: HOP-62
Hs-578T = tested on: Hs-578T
LOX IMVI = tested on: LOX IMVI
MDA-MB-231 = tested on: MDA-MB-231
MDA-MB-435 = tested on: MDA-MB-435
Malme-3M = tested on: Malme-3M
NCI-H226 = tested on: NCI-H226
NCI-H23 = tested on: NCI-H23
NCI-H522 = tested on: NCI-H522
OVCAR-3 = tested on: OVCAR-3
OVCAR-4 = tested on: OVCAR-4
RXF 393 = tested on: RXF 393
SF-295 = tested on: SF-295
SK-MEL-28 = tested on: SK-MEL-28
SK-MEL-2 = tested on: SK-MEL-2
SK-OV-3 = tested on: SK-OV-3
SN12C = tested on: SN12C
SNB-19 = tested on: SNB-19
T47D = tested on: T47D
TK-10 = tested on: TK-10
UACC-62 = tested on: UACC-62
UO-31 = tested on: UO-31

SMILES: Cc1ccc(S(=O)(=O)N2CCN3CCN(CCN(C)CCN4CCN(CC4)CCN(S(=O)(=O)c4ccc(C)cc4)CCN(S(=O)(=O)c4ccc(C)cc4)CCN(S(=O)(=O)c4ccc(C)cc4)CCN(S(=O)(=O)c4ccc(C)cc4)CCN4CCN(CCN(C)CCN5CCN(CC5)CCN(S(=O)(=O)c5ccc(C)cc5)CCN(S(=O)(=O)c5ccc(C)cc5)CCN(S(=O)(=O)c5ccc(C)cc5)CC2)CC4)CC3)cc1
- GI50 (A549): 1.82 µM (inactive)
- GI50 (ACHN): 1.79 µM (inactive)
- GI50 (CCRF-CEM): 0.303 µM (active)
- GI50 (EKVX): 2.33 µM (inactive)
- GI50 (HCC 2998): 0.766 µM (active)
- GI50 (HCT-15): 1.49 µM
- GI50 (HL-60): 0.407 µM (active)
- GI50 (HOP-92): 1.04 µM (active)
- GI50 (HT-29): 0.208 µM (active)
- GI50 (IGROV-1): 1.97 µM (inactive)
- GI50 (K562): 0.248 µM (active)
- GI50 (KM12): 0.541 µM (active)
- GI50 (M14): 1.95 µM (inactive)
- GI50 (MCF7): 1.5 µM (inactive)
- GI50 (MDA-N): 1.52 µM (inactive)
- GI50 (MOLT-4): 0.437 µM (active)
- GI50 (NCI-H460): 0.553 µM (active)
- GI50 (NCI/ADR-RES): > 100 µM (inactive)
- GI50 (OVCAR-5): 1.87 µM (inactive)
- GI50 (OVCAR-8): 2.1 µM (inactive)
- GI50 (PC-3): 1.85 µM (inactive)
- GI50 (RPMI-8226): 0.308 µM (active)
- GI50 (SF-268): 1.14 µM (inactive)
- GI50 (SF-539): 2.06 µM (inactive)
- GI50 (SK-MEL-5): 1.63 µM (inactive)
- GI50 (SNB-75): 1.35 µM (inactive)
- GI50 (SR): 0.254 µM (active)
- GI50 (SW-620): 1.05 µM (active)
- GI50 (U-251): 0.235 µM (active)
- GI50 (UACC-257): 1.77 µM (inactive)

SMILES: CC(C)C1SCc2nc3ccccc3n21 (stereo unspecified)
- GI50 (786-0): 84.9 µM (inactive)
- GI50 (A498): 30.1 µM (inactive)
- GI50 (A549): 37.9 µM (inactive)
- GI50 (ACHN): 19.7 µM (inactive)
- GI50 (CAKI-1): 40.1 µM (inactive)
- GI50 (CCRF-CEM): 34.8 µM (inactive)
- GI50 (COLO 205): 12.7 µM (inactive)
- GI50 (DU-145): 91.4 µM (inactive)
- GI50 (EKVX): 32.4 µM (inactive)
- GI50 (HCC 2998): 78 µM (inactive)
- GI50 (HCT-116): 30.6 µM (inactive)
- GI50 (HCT-15): 50.1 µM
- GI50 (HL-60): 43 µM (inactive)
- GI50 (HOP-62): 50.8 µM (inactive)
- GI50 (HOP-92): 16.3 µM (inactive)
- GI50 (HT-29): 40.4 µM (inactive)
- GI50 (Hs-578T): 36.1 µM (inactive)
- GI50 (IGROV-1): 24.4 µM (inactive)
- GI50 (K562): 34.5 µM (inactive)
- GI50 (KM12): 17.8 µM (inactive)
- GI50 (LOX IMVI): 35.4 µM (inactive)
- GI50 (M14): 33.4 µM (inactive)
- GI50 (MCF7): 13.9 µM (inactive)
- GI50 (MDA-MB-231): 24.2 µM (inactive)
- GI50 (MDA-MB-435): 28.8 µM (inactive)
- GI50 (MDA-N): 38.9 µM (inactive)
- GI50 (MOLT-4): 20 µM (inactive)
- GI50 (Malme-3M): 37.2 µM (inactive)
- GI50 (NCI-H226): < 0.01 µM (active)
- GI50 (NCI-H23): 25.9 µM (inactive)
- GI50 (NCI-H460): 46.3 µM (inactive)
- GI50 (NCI-H522): 71.3 µM (inactive)
- GI50 (NCI/ADR-RES): 29.4 µM (inactive)
- GI50 (OVCAR-3): 39.8 µM (inactive)
- GI50 (OVCAR-4): 27.4 µM (inactive)
- GI50 (OVCAR-5): 77.3 µM (inactive)
- GI50 (OVCAR-8): 40.2 µM (inactive)
- GI50 (PC-3): 13.2 µM (inactive)
- GI50 (RPMI-8226): 31.5 µM (inactive)
- GI50 (RXF 393): 39.6 µM (inactive)
- GI50 (SF-268): 64.3 µM (inactive)
- GI50 (SF-295): 30.5 µM (inactive)
- GI50 (SF-539): 38.2 µM (inactive)
- GI50 (SK-MEL-28): 68.1 µM (inactive)
- GI50 (SK-MEL-2): 29.8 µM (inactive)
- GI50 (SK-MEL-5): 16.4 µM (inactive)
- GI50 (SK-OV-3): > 100 µM (inactive)
- GI50 (SN12C): 21.8 µM (inactive)
- GI50 (SNB-19): 51.8 µM (inactive)
- GI50 (SW-620): 65.8 µM (inactive)
- GI50 (T47D): 58.1 µM (inactive)
- GI50 (TK-10): 38.5 µM (inactive)
- GI50 (U-251): 51.4 µM (inactive)
- GI50 (UACC-257): 32.8 µM (inactive)
- GI50 (UACC-62): 35.1 µM (inactive)
- GI50 (UO-31): 44.8 µM (inactive)

SMILES: CCOC(=O)c1c(N=P(c2ccccc2)(c2ccccc2)c2ccccc2)nnc(-c2ccccc2)c1-c1ccccc1
- GI50 (786-0): > 100 µM (inactive)
- GI50 (A498): 25.9 µM (inactive)
- GI50 (A549): > 100 µM (inactive)
- GI50 (ACHN): > 100 µM (inactive)
- GI50 (CCRF-CEM): > 100 µM (inactive)
- GI50 (COLO 205): > 100 µM (inactive)
- GI50 (DU-145): > 100 µM (inactive)
- GI50 (EKVX): > 100 µM (inactive)
- GI50 (HCC 2998): > 100 µM (inactive)
- GI50 (HCT-116): > 100 µM (inactive)
- GI50 (HCT-15): > 100 µM
- GI50 (HL-60): > 100 µM (inactive)
- GI50 (HOP-62): > 100 µM (inactive)
- GI50 (HOP-92): 5.52 µM (inactive)
- GI50 (HT-29): > 100 µM (inactive)
- GI50 (IGROV-1): > 100 µM (inactive)
- GI50 (K562): > 100 µM (inactive)
- GI50 (KM12): > 100 µM (inactive)
- GI50 (LOX IMVI): > 100 µM (inactive)
- GI50 (M14): > 100 µM (inactive)
- GI50 (MCF7): > 100 µM (inactive)
- GI50 (MDA-MB-231): > 100 µM (inactive)
- GI50 (MDA-MB-435): > 100 µM (inactive)
- GI50 (MDA-N): 92.5 µM (inactive)
- GI50 (MOLT-4): > 100 µM (inactive)
- GI50 (Malme-3M): > 100 µM (inactive)
- GI50 (NCI-H226): > 100 µM (inactive)
- GI50 (NCI-H23): > 100 µM (inactive)
- GI50 (NCI-H460): > 100 µM (inactive)
- GI50 (NCI-H522): > 100 µM (inactive)
- GI50 (NCI/ADR-RES): > 100 µM (inactive)
- GI50 (OVCAR-3): > 100 µM (inactive)
- GI50 (OVCAR-4): > 100 µM (inactive)
- GI50 (OVCAR-5): > 100 µM (inactive)
- GI50 (OVCAR-8): > 100 µM (inactive)
- GI50 (PC-3): > 100 µM (inactive)
- GI50 (RXF 393): 61.1 µM (inactive)
- GI50 (SF-268): > 100 µM (inactive)
- GI50 (SF-295): > 100 µM (inactive)
- GI50 (SF-539): > 100 µM (inactive)
- GI50 (SK-MEL-28): > 100 µM (inactive)
- GI50 (SK-MEL-2): 43.8 µM (inactive)
- GI50 (SK-MEL-5): > 100 µM (inactive)
- GI50 (SK-OV-3): > 100 µM (inactive)
- GI50 (SN12C): > 100 µM (inactive)
- GI50 (SNB-19): 71.3 µM (inactive)
- GI50 (SNB-75): 6.68 µM (inactive)
- GI50 (SR): > 100 µM (inactive)
- GI50 (SW-620): > 100 µM (inactive)
- GI50 (T47D): > 100 µM (inactive)
- GI50 (TK-10): > 100 µM (inactive)
- GI50 (U-251): > 100 µM (inactive)
- GI50 (UACC-257): > 100 µM (inactive)
- GI50 (UACC-62): > 100 µM (inactive)
- GI50 (UO-31): 1.66 µM (inactive)
